# In patent US8309584B2, “Sulfur containing pyrazole-heterocycle derivatives as cannabinoid CB1 receptor antagonists” (Green Cross Corporation, priority 2008, dated 2012):
# Molecular target: T1, rat CB-1 receptor (Rattus norvegicus, UniProt P20272)
# T1 construct: The tissue obtained from the brain of SD rats was homogenized; from tissue; host or cells: SD rat brain membrane homogenate
# Assay: rat cannabinoid-1 receptor (CB1R) binding affinity assay
# Details: not given
# Method: The tissue obtained from the brain of SD rats was homogenized with a Dounce homogenate system in TME(50 mM Tris, 3 mM MgCl2 and 1 mM EDTA, pH 7.4) at 4° C., and the homogenate was centrifuged at 48,000 g for 30 min. at 4° C. The pellet was resuspended in 5 ml of TME and the suspension was divided into aliquots and stored at −70° C. until its use in the following assay.
# The tissue concentrations were determined by Bradford protein analysis, and 148 μl of brain tissue of the required concentration was added to the plate. The plate was covered and placed in a 30° C. incubator for 60 min, and then transformed on GF/B filtermat pretreated in polyethylenimine (PEI) using a cell harvester. Each filter was washed five times and dried at 60° C. for 1 hr. Then, the degree of radioactivity retained by the filter was measured using Wallac Microbeta™ (PerkinElmer Life Sciences, Inc., Massachusetts, U.S.A.) and the activity of the compound for inhibiting CB1 receptor was determined therefrom.
# T1 sequence (P20272 whole entry): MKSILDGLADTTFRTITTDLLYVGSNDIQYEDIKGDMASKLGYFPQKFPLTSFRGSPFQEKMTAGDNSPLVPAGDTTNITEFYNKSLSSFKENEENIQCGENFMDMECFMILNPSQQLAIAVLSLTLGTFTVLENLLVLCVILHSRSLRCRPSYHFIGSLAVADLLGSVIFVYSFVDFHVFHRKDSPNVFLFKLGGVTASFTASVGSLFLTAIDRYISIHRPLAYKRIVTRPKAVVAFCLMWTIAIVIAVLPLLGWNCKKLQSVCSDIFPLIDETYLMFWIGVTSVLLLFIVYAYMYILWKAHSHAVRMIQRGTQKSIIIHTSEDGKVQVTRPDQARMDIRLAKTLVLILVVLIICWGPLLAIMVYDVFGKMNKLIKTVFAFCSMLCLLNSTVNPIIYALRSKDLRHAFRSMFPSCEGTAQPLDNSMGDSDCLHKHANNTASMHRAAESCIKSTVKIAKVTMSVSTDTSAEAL
row,SMILES,IC50 [nM]
1,"CS(=O)(=O)c1c(-c2nnc(C3(C(F)(F)F)CCC3)o2)nn(-c2ccc(Cl)cc2Cl)c1-c1ccc(Cl)cc1 [Example 82, 2-(5-(4-chlorophenyl)-1-(2,4-dichlorophenyl)-4-(methylsulfonyl)-1H-pyrazol-3-yl)-5-(1-(trifluoromethyl)cyclobutyl)-1,3,4-oxadiazole]",6.79
2,"CSc1c(-c2nnc(C3(C(F)(F)F)CCC3)s2)nn(-c2ccc(Cl)cc2Cl)c1-c1ccc(Cl)cc1 [Example 23, 2-(5-(4-chlorophenyl)-1-(2,4-dichlorophenyl)-4-(methylthio)-1H-pyrazol-3-yl)-5-(1-(trifluoromethyl)cyclobutyl)-1,3,4-thiadiazole]",7.31

# Same assay, conditions: [3H]CP-55940 radioligand, SD rat brain tissue homogenate, 30° C., 60 min; read-out: IC50
row,SMILES,IC50 [nM]
1,"CS(=O)(=O)c1c(-c2nnc(C3(C(F)(F)F)CC3)s2)nn(-c2ccc(Cl)cc2Cl)c1-c1ccc(Cl)cc1 [Example 101, 2-(5-(4-chlorophenyl)-1-(2,4-dichlorophenyl)-4-(methylsulfonyl)-1H-pyrazol-3-yl)-5-(1-(trifluoromethyl)cyclopropyl)-1,3,4-thiadiazole]",22
2,"CC(C)(C)c1nnc(-c2nn(-c3ccccc3Cl)c(-c3ccc(Br)cc3)c2S(C)(=O)=O)s1 [Example 112, 2-(5-(4-bromophenyl)-1-(2-chlorophenyl)-4-(methylsulfonyl)-1H-pyrazol-3-yl)-5-tert-butyl-1,3,4-thiadiazole]",3.01
3,"C[S+]([O-])c1c(-c2nnc(C3(C(F)(F)F)CCC3)s2)nn(-c2ccccc2Cl)c1-c1ccc(Cl)cc1 (stereo not drawn) [Example 66, 2-(1-(2-chlorophenyl)-5-(4-chlorophenyl)-4-(methylsulfinyl)-1H-pyrazol-3-yl)-5-(1-(trifluoromethyl)cyclobutyl)-1,3,4-thiadiazole]",3.4
4,"CS(=O)(=O)c1c(-c2nnc(C3(C(F)(F)F)CCC3)s2)nn(-c2ccccc2Cl)c1-c1ccc(Cl)cc1 [Example 106, 2-(1-(2-chlorophenyl)-5-(4-chlorophenyl)-4-(methylsulfonyl)-1H-pyrazol-3-yl)-5-(1-(trifluoromethyl)cyclobutyl)-1,3,4-thiadiazole]",0.87
5,"CS(=O)(=O)c1c(-c2nnc(C3(c4ccc(Cl)cc4)CC3)s2)nn(-c2ccccc2Cl)c1-c1ccc(Br)cc1 [Example 115, 2-(5-(4-bromophenyl)-1-(2-chlorophenyl)-4-(methylsulfonyl)-1H-pyrazol-3-yl)-5-(1-(4-chlorophenyl)cyclopropyl)-1,3,4-thiadiazole]",1.4
6,"CC(C)(C)c1nnc(-c2nn(-c3ccc(Cl)cc3Cl)c(-c3ccc(Br)cc3)c2S(C)(=O)=O)o1 [Example 88, 2-(5-(4-bromophenyl)-1-(2,4-dichlorophenyl)-4-(methylsulfonyl)-1H-pyrazol-3-yl)-5-tert-butyl-1,3,4-oxadiazole]",14.2
7,"C[S+]([O-])c1c(-c2nnc(C3(c4ccc(Cl)cc4)CC3)s2)nn(-c2ccc(Cl)cc2Cl)c1-c1ccc(Cl)cc1 (stereo not drawn) [Example 63, 2-(5-(4-chlorophenyl)-1-(2,4-dichlorophenyl)-4-(methylsulfinyl)-1H-pyrazol-3-yl)-5-(1-(4-chlorophenyl)cyclopropyl)-1,3,4-thiadiazole]",11.8
8,"CSc1c(-c2nnc(C3(C(F)(F)F)CC3)s2)nn(-c2ccccc2Cl)c1-c1ccc(Br)cc1 [Example 34, 2-(5-(4-bromophenyl)-1-(2-chlorophenyl)-4-(methylthio)-1H-pyrazol-3-yl)-5-(1-(trifluoromethyl)cyclopropyl)-1,3,4-thiadiazole]",17.1
9,"CSc1c(-c2nnc(C3(C(F)(F)F)CCC3)o2)nn(-c2ccccc2Cl)c1-c1ccc(Cl)cc1 [Example 7, 2-(1-(2-chlorophenyl)-5-(4-chlorophenyl)-4-(methylthio)-1H-pyrazol-3-yl)-5-(1-(trifluoromethyl)cyclobutyl)-1,3,4-oxadiazole]",4.21
10,"CS(=O)(=O)c1c(-c2nnc(C3(C(F)(F)F)CCC3)s2)nn(-c2ccc(Cl)cc2Cl)c1-c1ccc(Cl)cc1 [Example 102, 2-(5-(4-chlorophenyl)-1-(2,4-dichlorophenyl)-4-(methylsulfonyl)-1H-pyrazol-3-yl)-5-(1-(trifluoromethyl)cyclobutyl)-1,3,4-thiadiazole]",3.74
